Test results as given in patent US11548894B2, “Benzamide or benzamine compounds useful as anticancer agents for the treatment of human cancers” (The Board of Regents of the University of Texas System, priority 2015, dated 2023).
Where a name gives a salt, the structure may show the parent alone. Read-outs that look alike come from different tables or passages of the source.

Test system: Mut6 cells (TD-NSC)
Assay: luminescence-based Celltiter-Glo cell viability assay (ATP levels) on Mut6 tumor derived neuronal stem cells
Parameters: species or system mouse
Settings: ATP activity as measure of viability, 96 hours, read-out: EC50 (TD-NSC)
Text: A mouse colony with 100% incidence of GBM and with conditional knockout of p53, pTEN and NF1 genes (Mut6; glioblastoma) was used to isolate primary neuronal stem cells from GBM tumors cultured in 5% Oxygen and in serum free media with defined growth factors. Primary cells from multiple tumors were pooled for high throughput screening with controls against the University of Texas Southwestern (UTSW) compound file, which encompasses ˜200,000 synthetic compounds that represent a large chemical space from several commercial vendors, including 1200 marketed drugs from the Prestwick Chemical Library®, and 600 compounds that went to pre-clinical tests from the NIH library.
A luminescence-based Celltiter-Glo® assay was performed to measure cell viability, using ATP levels as the readout. In brief, opaque-walled multiwell plates with Mut6 cells in culture medium (25 μl per well, 384-well plates) were prepared. Control wells containing medium without cells were prepared to obtain a value for background luminescence. Test compounds were added to experimental wells, and incubated according to culture protocol. The plate and its contents were incubated at 37° C., 5% […] for 96 hours. An ATP standard curve was generated immediately prior to adding the CellTiter-Glo® Reagent. A volume of CellTiter-Glo® Reagent equal to the volume of cell culture medium present in each well (25 μl of reagent to 25 μl of medium containing cells for a 384-well plate) was added. The contents were mixed for 2 minutes on an orbital shaker to induce cell lysis. The plate was allowed to incubate at room temperature for 10 minutes to stabilize the luminescent signal and luminescence recorded. (e.g. GloMax®, Lumistar, SPECTROstar, PHERAstar FS).
Compound 4C12 served as initial lead compound for analog development and for additional studies. […] See Wager, T T et al, “Moving beyond rules: the development of a central nervous system multi-parameter-optimization (CNS MPO) approach to enable alignment of drug-like properties,” ACS Chem. Neurosci. 1(6): 435-49 (2010). IC50 curves for the analog compounds plotted as ATP activity (y axis, a measure of viability) vs. concentration (nM) (x-axis) are shown in FIG. 9.

| Structure (SMILES) | EC50 (Mus musculus, 96 h) [nM] | EC50 (Hydrochloride) [nM] |
| --- | --- | --- |
| C#CCN(CC1CCCN1CC)C(=O)c1ccc(Sc2ccc(F)cc2)c([N+](=O)[O-])c1 (stereo not drawn) [ww2-292, N-((1-ethylpyrrolidin-2-yl)methyl)-4-((4-fluorophenyl)thio)-3-nitro-N-(prop-2-yn-1-yl)benzamide] | 531 | – |
| CCN1CCCC1CNC(=O)c1ccc(Sc2cccc(C)c2)c([N+](=O)[O-])c1 (stereo not drawn) [DS-1-305, N-((1-ethylpyrrolidin-2-yl)methyl)-3-nitro-4-(m-tolylthio)benzamide] | 86 | – |
| CCN1CCCC1CNC(=O)c1ccc(C(O)c2ccc(F)cc2)c([N+](=O)[O-])c1 (stereo not drawn) [DS-2-051, N-((1-ethylpyrrolidin-2-yl)methyl)-4-((4-fluorophenyl)(hydroxy)methyl)-3-nitrobenzamide] | 564 | – |
| C#CCN(CCNC(=O)c1ccc(Sc2ccc(F)cc2)c([N+](=O)[O-])c1)CCOC(=O)c1ccc(C(=O)c2ccccc2)cc1 [ww3-80, 2-((2-(4-((4-fluorophenyl)thio)-3-nitrobenzamido)ethyl)(prop-2-yn-1-yl)amino)ethyl 4-benzoylbenzoate] | 161 | – |
| CCN1CCCC1CNC(=O)c1ccc(NS(=O)(=O)c2ccc(F)cc2)c([N+](=O)[O-])c1 (stereo not drawn) [DS-1-213, N-((1-ethylpyrrolidin-2-yl)methyl)-4-(4-fluorophenylsulfonamido)-3-nitrobenzamide] | > 1000 | – |
| O=C(NCC1CCCO1)c1ccc(Sc2ccc(F)cc2)c([N+](=O)[O-])c1 (stereo not drawn) [DS-1-275, 4-((4-fluorophenyl)thio)-3-nitro-N-((tetrahydrofuran-2-yl)methyl)benzamide] | > 1000 | – |
| CCN1CCCC1CNC(=O)c1ccc(Sc2ccc(C(C)C)cc2)c([N+](=O)[O-])c1 (stereo not drawn) [DS-1-123, N-((1-ethylpyrrolidin-2-yl)methyl)-4-((4-isopropylphenyl)thio)-3-nitrobenzamide] | 516 | – |
| CCN1CCCC1CNC(=O)c1ccc(Sc2cc(Cl)cc(Cl)c2)c([N+](=O)[O-])c1 (stereo not drawn) [JCH-124, 4-((3,5-dichlorophenyl)thio)-N-((1-ethylpyrrolidin-2-yl)methyl)-3-nitrobenzamide] | 510 | – |
| CCN1CCCC1CNS(=O)(=O)c1ccc(Sc2ccc(F)cc2)c([N+](=O)[O-])c1 (stereo not drawn) [DS-2-055, N-((1-ethylpyrrolidin-2-yl)methyl)-4-((4-fluorophenyl)thio)-3-nitrobenzenesulfonamide] | 155 | – |
| CCN1CCCC1COC(=O)c1ccc(Sc2ccc(F)cc2)c([N+](=O)[O-])c1 (stereo not drawn) [DS-1-287, (1-ethylpyrrolidin-2-yl)methyl 4-((4-fluorophenyl)thio)-3-nitrobenzoate] | > 1000 | – |
| CCN(CC)CCNC(=O)c1ccc(Sc2ccc(F)cc2)c([N+](=O)[O-])c1 [DS-1-239, N-(2-(diethylamino)ethyl)-4-((4-fluorophenyl)thio)-3-nitrobenzamide Hydrochloride] | – | 59 |
| O=C(NCCN1CCCCC1)c1ccc(Sc2ccc(F)cc2)c([N+](=O)[O-])c1 [DS-2-125, 4-((4-fluorophenyl)thio)-3-nitro-N-(2-(piperidin-1-yl)ethyl)benzamide] | 50 | – |
| CC[N+]1(C)CCCC1CNC(=O)c1ccc(Sc2ccc(F)cc2)c([N+](=O)[O-])c1 (stereo not drawn) [DS-1-119, 1-ethyl-2-((4-((4-fluorophenyl)thio)-3-nitrobenzamido)methyl)-1-methylpyrrolidin-1-ium Iodide] | > 1000 | – |
| CCN1CCCC1CNC(=O)c1ccc(Sc2ccc(F)c(F)c2)c([N+](=O)[O-])c1 (stereo not drawn) [DS-1-067, 4-((3,4-difluorophenyl)thio)-N-((1-ethylpyrrolidin-2-yl)methyl)-3-nitrobenzamide] | 118 | – |
| CCN1CCCC1CNC(=O)c1ccc(Sc2ccc(Cl)cc2Cl)c([N+](=O)[O-])c1 (stereo not drawn) [JCH-120, 4-((2,4-dichlorophenyl)thio)-N-((1-ethylpyrrolidin-2-yl)methyl)-3-nitrobenzamide] | 68 | – |
| CCN1CCCC1CNC(=O)c1ccc([S+]([O-])c2ccc(F)cc2)c([N+](=O)[O-])c1 (stereo not drawn) [DS-1-135, N-((1-ethylpyrrolidin-2-yl)methyl)-4-((4-fluorophenyl)sulfinyl)-3-nitrobenzamide] | > 1000 | – |

Continued, values first:

| EC50 (Mus musculus, 96 h) [nM] | EC50 (Hydrochloride) [nM] | Structure (SMILES) |
| --- | --- | --- |
| 394 | – | CCN1CCCC1CNC(=O)c1ccc(Sc2ccc(F)cc2)cc1 (stereo not drawn) [DS-1-117, N-((1-ethylpyrrolidin-2-yl)methyl)-4-((4-fluorophenyl)thio)benzamide] |
| 63 | – | CCN1CCCC1CNC(=O)c1ccc(Sc2ccc(F)cc2)c(N=[N+]=[N-])c1 (stereo not drawn) [ww3-57, 3-azido-N-((1-ethylpyrrolidin-2-yl)methyl)-4-((4-fluorophenyl)thio)benzamide] |
| > 1000 | – | CN(CCN)CCNC(=O)c1ccc(Sc2ccc(F)cc2)c([N+](=O)[O-])c1 [DS-1-195, N-(2-((2-aminoethyl)(methyl)amino)ethyl)-4-((4-fluorophenyl)thio)-3-nitrobenzamide] |
| 233 | – | CCN1CCCC1CNC(=O)c1ccc(C(=O)c2ccc(F)cc2)c([N+](=O)[O-])c1 (stereo not drawn) [DS-2-057, N-((1-ethylpyrrolidin-2-yl)methyl)-4-(4-fluorobenzoyl)-3-nitrobenzamide] |
| > 1000 | – | O=C(NCc1ccccn1)c1ccc(Sc2ccc(F)cc2)c([N+](=O)[O-])c1 [DS-1-023, 4-((4-fluorophenyl)thio)-3-nitro-N-(pyridin-2-ylmethyl)benzamide] |
| 192 | – | CCN1CCCC1CNC(=O)c1ccc(Sc2ccc(F)cc2)c(N)c1 (stereo not drawn) [DS-1-225, 3-amino-N-((1-ethylpyrrolidin-2-yl)methyl)-4-((4-fluorophenyl)thio)benzamide] |
| 119 | – | CCN1CCCC1CNC(=O)c1ccc(Sc2ccccc2OC)c([N+](=O)[O-])c1 (stereo not drawn) [JCH-117, N-((1-ethylpyrrolidin-2-yl)methyl)-4-((2-methoxyphenyl)thio)-3-nitrobenzamide] |
| 86 | – | CCN1CCCC1CNC(=O)c1ccc(Sc2ccc(C(F)(F)F)cc2)c([N+](=O)[O-])c1 (stereo not drawn) [DS-1-065, N-((1-ethylpyrrolidin-2-yl)methyl)-3-nitro-4-((4-(trifluoromethyl)phenyl)thio)benzamide] |
| 25 | – | O=C(NCCN1CCOCC1)c1ccc(Sc2ccc(F)cc2)c([N+](=O)[O-])c1 [DS-1-089, 4-((4-fluorophenyl)thio)-N-(2-morpholinoethyl)-3-nitrobenzamide] |
| 62 | – | CCN1CCCC1CNC(=O)c1ccc(Sc2ccc(Br)cc2)c([N+](=O)[O-])c1 (stereo not drawn) [DS-1-185, 4-((4-bromophenyl)thio)-N-((1-ethylpyrrolidin-2-yl)methyl)-3-nitrobenzamide] |
| 301 | – | CCN1CCCC1CNC(=O)c1ccc(Sc2cccc(N)c2)c([N+](=O)[O-])c1 (stereo not drawn) [JCH-109, 4-((3-aminophenyl)thio)-N-((1-ethylpyrrolidin-2-yl)methyl)-3-nitrobenzamide] |
| 93 | – | CCN1CCCC1CNC(=O)c1ccc(Sc2ccc(Cl)c(Cl)c2)c([N+](=O)[O-])c1 (stereo not drawn) [DS-1-291, 4-((3,4-dichlorophenyl)thio)-N-((1-ethylpyrrolidin-2-yl)methyl)-3-nitrobenzamide] |
| 169 | – | CCN1CCCC1CNC(=O)c1ccc(Sc2ccc(C)c(C)c2)c([N+](=O)[O-])c1 (stereo not drawn) [DS-1-299, 4-((3,4-dimethylphenyl)thio)-N-((1-ethylpyrrolidin-2-yl)methyl)-3-nitrobenzamide] |
| 269 | – | C#CCOc1ccc(Sc2ccc(C(=O)NCC3CCCN3CC)cc2[N+](=O)[O-])cc1 (stereo not drawn) [DS-1-261, N-((1-ethylpyrrolidin-2-yl)methyl)-3-nitro-4-((4-(prop-2-yn-1-yloxy)phenyl)thio)benzamide] |
| 192 | – | CCN1CCCC1CNC(=O)c1ccc(SC2CCCCC2)c([N+](=O)[O-])c1 (stereo not drawn) [DS-1-139, 4-(cyclohexylthio)-N-((1-ethylpyrrolidin-2-yl)methyl)-3-nitrobenzamide] |
| > 1000 | – | CCN1CCCC1CNC(=O)c1ccc(OCc2ccc(C3(C(F)(F)F)N=N3)cc2)c([N+](=O)[O-])c1 (stereo not drawn) [ww3-13] |
| 55 | – | CCN1CCCC1CNC(=O)c1ccc(Sc2ccc(C)cc2)c([N+](=O)[O-])c1 (stereo not drawn) [DS-1-271, N-((1-ethylpyrrolidin-2-yl)methyl)-3-nitro-4-(p-tolylthio)benzamide] |
| 125 | – | CCN1CCCC1CNC(=O)c1ccc(Sc2ccc3ccccc3n2)c([N+](=O)[O-])c1 (stereo not drawn) [JCH-127, N-((1-ethylpyrrolidin-2-yl)methyl)-3-nitro-4-(quinolin-2-ylthio)benzamide] |
| 139 | – | CCN1CCCC1CNC(=O)c1ccc(Sc2cccc(O)c2)c([N+](=O)[O-])c1 (stereo not drawn) [JCH-140, N-((1-ethylpyrrolidin-2-yl)methyl)-4-((3-hydroxyphenyl)thio)-3-nitrobenzamide] |
| > 1000 | – | C#CCN(CC)CCNC(=O)c1ccc(Oc2ccccc2C(=O)c2ccccc2)c([N+](=O)[O-])c1 [DS-2-101, 4-(2-benzoylphenoxy)-N-(2-(ethyl(prop-2-yn-1-yl)amino)ethyl)-3-nitrobenzamide] |
